Patent publication US9512107B2, “Therapeutically active compositions and their methods of use” (Agios Pharmaceuticals, Inc., priority 2012, dated 2016)

Key:
IDH2 R140Q = target: T1, IDH2 R140Q (Homo sapiens, UniProt P48735, R140Q); experiment: IDH2 R140Q enzymatic assay (cofactor depletion, similar format); type: biochemical; settings: read-out: Enz R140Q
T1 sequence (P48735 40-452 R140Q): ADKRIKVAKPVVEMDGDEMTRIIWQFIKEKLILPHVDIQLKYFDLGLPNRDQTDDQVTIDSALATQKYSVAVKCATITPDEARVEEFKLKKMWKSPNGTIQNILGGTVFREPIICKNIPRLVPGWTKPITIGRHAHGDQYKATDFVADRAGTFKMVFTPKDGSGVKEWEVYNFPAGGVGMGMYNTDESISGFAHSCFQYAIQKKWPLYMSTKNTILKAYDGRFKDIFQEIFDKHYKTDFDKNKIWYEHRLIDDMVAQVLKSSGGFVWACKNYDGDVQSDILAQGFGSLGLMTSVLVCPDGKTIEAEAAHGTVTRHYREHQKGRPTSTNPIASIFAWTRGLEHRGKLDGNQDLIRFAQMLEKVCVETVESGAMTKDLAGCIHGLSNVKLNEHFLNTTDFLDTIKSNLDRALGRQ
Description: [The source words this procedure for another variant and says it was used here with some conditions changed.] Compounds are assayed for IDH2 R172K inhibitory activity through a cofactor depletion assay. […] The reaction is terminated by the addition of a second enzyme, diaphorase, and a corresponding substrate, resazurin. Diaphorase reduces resazurin to the highly fluorescent resorufin with the concomitant oxidation of NADPH to NADP, both halting the IDH2 reaction by depleting the available cofactor pool and facilitating quantitation of the amount of cofactor remaining after a specific time period through quantitative production of an easily detected fluorophore.
The test compound is then incubated for one hour at room temperature with the enzyme; before starting the IDH2 reaction with the addition of 10 μl of substrate mix containing 50 μM NADPH and 6.3 mM α-KG in the buffer described above. After a further one hour of incubation at room temperature, the reaction is halted and the remaining NADPH measured through conversion of resazurin to resorufin by the addition of 25 μl Stop Mix (36 μg/ml diaphorase enzyme and 60 μM resazurin; in buffer).

[1] = system: U87MG pLVX-IDH2 R140Q-neo cells; experiment: U87MG pLVX-IDH2 R140Q-neo cell based assay, 2-HG in media by LC-MS at 48 hours; settings: for IC50: Homo sapiens, U-87 MG
Description: U87MG pLVX-IDH2 R140Q-neo cells are grown in T125 flasks in DMEM containing 10% FBS, 1× penicillin/streptomycin and 500 μg/mL G418. They are harvested by trypsin and seeded into 96 well white bottom plates at a density of 5000 cell/well in 100 μl/well in DMEM with 10% FBS. No cells are plated in columns 1 and 12. Cells are incubated overnight at 37° C. in 5% CO2. The next day compounds are made up at 2× concentration and 100 ul are added to each cell well. The final concentration of DMSO is 0.2% and the DMSO control wells are plated in row G. The plates are then placed in the incubator for 48 hours. At 48 hours, 100 ul of media is removed from each well and analyzed by LC-MS for 2-HG concentrations. The cell plate is placed back in the incubator for another 24 hours. At 72 hours post compound addition, 10 mL/plate of Promega Cell Titer Glo reagent is thawed and mixed. The cell plate is removed from the incubator and allowed to equilibrate to room temperature. Then 100 ul of reagent is added to each well of media. The cell plate is then placed on an orbital shaker for 10 minutes and then allowed to sit at room temperature for 20 minutes. The plate is then read for luminescence with an integration time of 500 ms to determine compound effects on growth inhibition.

`CC(C)(O)CNc1nc(Nc2ccnc(C(F)(F)F)c2)nc(-c2ccccc2F)n1` [Compound 319, 1-(4-(2-fluorophenyl)-6-(2-(trifluoromethyl)pyridin-4-ylamino)-1,3,5-triazin-2-ylamino)-2-methylpropan-2-ol] showed an IC50 (IDH2 R140Q) of 100 to 1000 nM and an IC50 [1] of under 100 nM.
`CC(C)CNc1nc(Nc2cncc(F)c2)nc(-c2ccccc2F)n1` [Compound 320, 6-(2-fluorophenyl)-N^2-(5-fluoropyridin-3-yl)-N^4-isobutyl-1,3,5-triazine-2,4-diamine] was tested, and the IC50 (IDH2 R140Q) was under 100 nM and the IC50 [1] was under 100 nM.
In the case of `CC(C)Nc1nc(Nc2cncc(C#N)c2)nc(-c2ccccc2F)n1` [Compound 321, 5-(4-(2-fluorophenyl)-6-(isopropylamino)-1,3,5-triazin-2-ylamino)nicotinonitrile], the IC50 (IDH2 R140Q) is reported as under 100 nM and the IC50 [1] is reported as under 100 nM.
In the case of `Fc1cncc(Nc2nc(NC3CCC3)nc(-c3ccccn3)n2)c1` [Compound 322, N^2-cyclobutyl-N^4-(5-fluoropyridin-3-yl)-6-(pyridin-2-yl)-1,3,5-triazine-2,4-diamine], the IC50 (IDH2 R140Q) is reported as 100 to 1000 nM and the IC50 [1] is reported as under 100 nM.
`Fc1cncc(Nc2nc(NC3CCC3)nc(-c3cccc(Cl)n3)n2)c1` [Compound 323, 6-(6-chloropyridin-2-yl)-N^2-cyclobutyl-N^4-(5-fluoropyridin-3-yl)-1,3,5-triazine-2,4-diamine] showed an IC50 (IDH2 R140Q) of 100 to 1000 nM and an IC50 [1] of under 100 nM.
In the case of `CC(O)C(=O)Nc1nc(Nc2ccccc2)nc(-c2ccccc2)n1` (stereo not shown) [Compound 324, 2-hydroxy-N-(4-phenyl-6-(phenylamino)-1,3,5-triazin-2-yl)propanamide], the IC50 (IDH2 R140Q) is reported as 100 to 1000 nM and the IC50 [1] is reported as 1000 to 10000 nM.
`Fc1ccc(Nc2nc(NC3CCC3)nc(-c3cccc(Cl)n3)n2)cn1` [Compound 325, 6-(6-chloropyridin-2-yl)-N^2-cyclobutyl-N^4-(6-fluoropyridin-3-yl)-1,3,5-triazine-2,4-diamine] gave an IC50 (IDH2 R140Q) of under 100 nM and an IC50 [1] of under 100 nM.
`CC(C)Nc1nc(Nc2cccc(S(C)(=O)=O)c2)nc(-c2cccc(Cl)n2)n1` [Compound 326, 6-(6-chloropyridin-2-yl)-N^2-isopropyl-N^4-(3-(methylsulfonyl)phenyl)-1,3,5-triazine-2,4-diamine] showed an IC50 (IDH2 R140Q) of 100 to 1000 nM and an IC50 [1] of under 100 nM.
For `CC(C)Nc1nc(Nc2ccncc2)nc(-c2cccc(N)c2)n1` [Compound 327], the IC50 (IDH2 R140Q) was 100 to 1000 nM and the IC50 [1] was 100 to 1000 nM.
Work on `CC(C)Nc1nc(Nc2ccncc2)nc(-c2cccc(O)c2)n1` [Compound 328, 3-[4-Isopropylamino-6-(pyridin-4-ylamino)-[1,3,5]triazin-2-yl]-phenol] yielded an IC50 (IDH2 R140Q) of under 100 nM and an IC50 [1] of under 100 nM.
Molecule `CC(C)Nc1nc(Nc2cncc(C(F)(F)F)c2)nc(-c2ccccc2)n1` [Compound 329, N^2-isopropyl-6-phenyl-N^4-(5-(trifluoromethyl)pyridin-3-yl)-1,3,5-triazine-2,4-diamine] has an IC50 (IDH2 R140Q) of under 100 nM and an IC50 [1] of under 100 nM.
Molecule `Clc1cncc(Nc2nc(NC3CCC3)nc(-c3ccccn3)n2)c1` [Compound 330, N^2-(5-chloropyridin-3-yl)-N^4-cyclobutyl-6-(pyridin-2-yl)-1,3,5-triazine-2,4-diamine] has an IC50 (IDH2 R140Q) of 100 to 1000 nM and an IC50 [1] of under 100 nM.
For `CNc1cccc(-c2nc(Nc3ccccc3)nc(NC(C)C)n2)n1` [Compound 331, N^2-isopropyl-6-(6-(methylamino)pyridin-2-yl)-N^4-phenyl-1,3,5-triazine-2,4-diamine], the IC50 (IDH2 R140Q) was 100 to 1000 nM and the IC50 [1] was under 100 nM.
In the case of `CC(C)Nc1nc(Nc2cn(C)cn2)nc(-c2ccccc2)n1` [Compound 332, N^2-isopropyl-N^4-(1-methyl-1H-imidazol-4-yl)-6-phenyl-1,3,5-triazine-2,4-diamine], the IC50 (IDH2 R140Q) is reported as over 10000 nM and the “Cell R140Q” value [1] is reported as “No Fit”.
For `Cc1ncc(Nc2nc(NC(C)C)nc(-c3ccccc3)n2)cn1` [Compound 343, N^2-isopropyl-N^4-(2-methylpyrimidin-5-yl)-6-phenyl-1,3,5-triazine-2,4-diamine], the IC50 (IDH2 R140Q) was 100 to 1000 nM and the IC50 [1] was 100 to 1000 nM.
`COC(=O)c1cc(Nc2nc(NC(C)C)nc(-c3ccccc3)n2)ccn1` [Compound 346] gave an IC50 (IDH2 R140Q) of under 100 nM and an IC50 [1] of 100 to 1000 nM.
In the case of `O[C@H]1CCC[C@H]1Nc1nc(Nc2ccccc2)nc(-c2ccccc2)n1` [Compound 352, (1S,2R)-2-(4-phenyl-6-(phenylamino)-1,3,5-triazin-2-ylamino)cyclopentanol], the IC50 (IDH2 R140Q) is reported as under 100 nM and the IC50 [1] is reported as under 100 nM.
With `CC(C)Nc1nc(Nc2cncnc2)nc(-c2cccc(Cl)n2)n1` [Compound 353, 6-(6-chloropyridin-2-yl)-N^2-isopropyl-N^4-(pyrimidin-5-yl)-1,3,5-triazine-2,4-diamine] the IC50 (IDH2 R140Q) was 100 to 1000 nM and the IC50 [1] was under 100 nM.
For `CC(C)Nc1nc(Nc2ccnc(Cl)c2)nc(-c2cccc(Cl)n2)n1` [Compound 354, 6-(6-chloropyridin-2-yl)-N^2-(2-chloropyridin-4-yl)-N^4-isopropyl-1,3,5-triazine-2,4-diamine], the IC50 (IDH2 R140Q) was 100 to 1000 nM and the IC50 [1] was under 100 nM.
`CC(C)Nc1nc(Nc2ccnc(C#N)c2)nc(-c2cccc(Cl)n2)n1` [Compound 355, 4-(4-(6-chloropyridin-2-yl)-6-(isopropylamino)-1,3,5-triazin-2-ylamino)picolinonitrile] showed an IC50 (IDH2 R140Q) of 100 to 1000 nM and an IC50 [1] of under 100 nM.
Molecule `FC(F)(F)c1cc(Nc2nc(NC3COC3)nc(-c3cccc(Cl)n3)n2)ccn1` [Compound 356, 6-(6-Chloro-pyridin-2-yl)-N-oxetan-3-yl-N′-(2-trifluoromethyl-pyridin-4-yl)-[1,3,5]triazine-2,4-diamine] has an IC50 (IDH2 R140Q) of 100 to 1000 nM and an IC50 [1] of under 100 nM.
In the case of `Cc1cccc(-c2nc(Nc3cccc(S(C)(=O)=O)c3)nc(NC(C)C)n2)n1` [Compound 359, N^2-isopropyl-6-(6-methylpyridin-2-yl)-N^4-(3-(methylsulfonyl)phenyl)-1,3,5-triazine-2,4-diamine], the IC50 (IDH2 R140Q) is reported as 100 to 1000 nM and the IC50 [1] is reported as 100 to 1000 nM.
With `C#Cc1cccc(-c2nc(Nc3cccc(S(C)(=O)=O)c3)nc(NC(C)C)n2)n1` [Compound 360, 6-(6-ethynylpyridine-2-yl)-N^2-isopropyl-N^4-(3-(methylsulfonyl)phenyl)-1,3,5-triazine-2,4-diamine] the IC50 (IDH2 R140Q) was 100 to 1000 nM and the IC50 [1] was 100 to 1000 nM.
`COc1cccc(-c2nc(Nc3cccc(S(C)(=O)=O)c3)nc(NC(C)C)n2)n1` [Compound 361, N^2-isopropyl-6-(6-methoxypyridin-2-yl)-N^4-(3-(methylsulfonyl)phenyl)-1,3,5-triazine-2,4-diamine] showed an IC50 (IDH2 R140Q) of 100 to 1000 nM and an IC50 [1] of 100 to 1000 nM.
For `O=C1C=C(Nc2nc(Nc3ccccc3)nc(-c3ccccc3)n2)CCC1` [Compound 362, 3-(4-phenyl-6-(phenylamino)-1,3,5-triazin-2-ylamino)cyclohex-2-enone], the IC50 (IDH2 R140Q) was 100 to 1000 nM and the IC50 [1] was 100 to 1000 nM.
In the case of `CC(C)(C)CNc1nc(Nc2ccc(F)nc2)nc(-c2ccccn2)n1` [Compound 363, N^2-(6-fluoropyridin-3-yl)-N^4-neopentyl-6-(pyridin-2-yl)-1,3,5-triazine-2,4-diamine], the IC50 (IDH2 R140Q) is reported as 100 to 1000 nM and the IC50 [1] is reported as under 100 nM.
Work on `CNc1cccc(-c2nc(Nc3cccc(S(C)(=O)=O)c3)nc(NC(C)C)n2)n1` [Compound 364, N^2-isopropyl-6-(6-(methylamino)pyridin-2-yl)-N^4-(3-(methylsulfonyl)phenyl)-1,3,5-triazine-2,4-diamine] yielded an IC50 (IDH2 R140Q) of 1000 to 10000 nM and an IC50 [1] of 100 to 1000 nM.
Work on `CC(C)Nc1nc(Nc2cccc(S(C)(=O)=O)c2)nc(-c2cccc(C(F)F)n2)n1` [Compound 366, 6-(6-(difluoromethyl)pyridin-2-yl)-N^2-isopropyl-N^4-(3-(methylsulfonyl)phenyl)-1,3,5-triazine-2,4-diamine] yielded an IC50 (IDH2 R140Q) of 100 to 1000 nM and an IC50 [1] of under 100 nM.
`CC(C)(O)CNc1nc(Nc2cncc(C(F)(F)F)c2)nc(-c2cccc(Cl)n2)n1` [Compound 367, 1-(4-(6-chloropyridin-2-yl)-6-(5-(trifluoromethyl)pyridin-3-ylamino)-1,3,5-triazin-2-ylamino)-2-methylpropan-2-ol] was tested, and the IC50 (IDH2 R140Q) was 100 to 1000 nM and the IC50 [1] was under 100 nM.
